Data taken from ChEMBL document CHEMBL5543144, “Discovery of a Novel Potent Tetrazole Antifungal Candidate with High Selectivity and Broad Spectrum” (J Med Chem, 2024).
Values after ≈ are worked out from the molar mass of the structure shown.

Assays:
Type in all cases: functional
Candida parapsilosis = assay: Antifungal activity against Candida parapsilosis 22019 assessed as inhibition of fungal growth incubated for 24 hrs by CLSI protocol based microbroth dilution method; conditions: Lodderomyces parapsilosis
Pichia kudriavzevii = assay: Antifungal activity against Candida krusei 4946 assessed as inhibition of fungal growth incubated for 24 hrs by CLSI protocol based microbroth dilution method
Aspergillus fumigatus = assay: Antifungal activity against Aspergillus fumigatus 7544 assessed as inhibition of fungal growth incubated for 48 hrs by CLSI protocol based microbroth dilution method
Cryptococcus neoformans = assay: Antifungal activity against Cryptococcus neoformans H99 assessed as inhibition of fungal growth incubated for 72 hrs by CLSI protocol based microbroth dilution method
Candida albicans = assay: Antifungal activity against Candida albicans SC5314 assessed as inhibition of fungal growth incubated for 24 hrs by CLSI protocol based microbroth dilution method
Nakaseomyces glabratus = assay: Antifungal activity against Candida glabrata 537 assessed as inhibition of fungal growth incubated for 48 hrs by CLSI protocol based microbroth dilution method
Candida tropicalis = assay: Antifungal activity against Candida tropicalis 2718 assessed as inhibition of fungal growth incubated for 24 hrs by CLSI protocol based microbroth dilution method
[Candida] auris [1] = Antifungal activity against fluconazole resistant Candida auris 887 assessed as inhibition of fungal growth incubated for 48 hrs by CLSI protocol based microbroth dilution method; conditions: Candidozyma auris
[Candida] auris [2] = Antifungal activity against fluconazole resistant Candida auris 789 assessed as inhibition of fungal growth incubated for 48 hrs by CLSI protocol based microbroth dilution method; conditions: Candidozyma auris
[Candida] auris [3] = Antifungal activity against fluconazole resistant Candida auris D12 assessed as inhibition of fungal growth incubated for 48 hrs by CLSI protocol based microbroth dilution method; conditions: Candidozyma auris
[Candida] auris [4] = Antifungal activity against fluconazole resistant Candida auris 791 assessed as inhibition of fungal growth incubated for 48 hrs by CLSI protocol based microbroth dilution method; conditions: Candidozyma auris
[Candida] auris [5] = Antifungal activity against fluconazole resistant Candida auris 888 assessed as inhibition of fungal growth incubated for 48 hrs by CLSI protocol based microbroth dilution method; conditions: Candidozyma auris
[Candida] auris [6] = Antifungal activity against fluconazole resistant Candida auris BS12372 assessed as inhibition of fungal growth incubated for 48 hrs by CLSI protocol based microbroth dilution method; conditions: Candidozyma auris

Structure (SMILES) | MIC50 (Candida parapsilosis) [µg/mL] | MIC50 (Pichia kudriavzevii) [µg/mL] | MIC50 (Aspergillus fumigatus) [µg/mL] | MIC50 (Cryptococcus neoformans) [µg/mL] | MIC50 (Candida albicans) [µg/mL] | MIC50 (Nakaseomyces glabratus) [µg/mL] | MIC50 (Candida tropicalis) [µg/mL] | MIC50 ([Candida] auris [1]) [µg/mL] | MIC50 ([Candida] auris [2]) [µg/mL] | MIC50 ([Candida] auris [3]) [µg/mL] | MIC50 ([Candida] auris [4]) [µg/mL] | MIC50 ([Candida] auris [5]) [µg/mL] | MIC50 ([Candida] auris [6]) [µg/mL]
C[C@@H](n1ccc2cc(F)ccc2c1=O)[C@](O)(Cn1cncn1)c1ccc(F)cc1F | < 0.008 | 0.016 (≈ 0.0386 µM) | 0.25 (≈ 0.603 µM) | < 0.008 | < 0.008 | 0.016 (≈ 0.0386 µM) | < 0.008 |  |  |  |  |  | 
C[C@@H](n1ccc2cc(-c3ccccc3)ccc2c1=O)[C@](O)(Cn1cncn1)c1ccc(F)cc1F | 0.063 (≈ 0.133 µM) | 1 (≈ 2.12 µM) | 8 (≈ 16.9 µM) | 0.5 (≈ 1.06 µM) | < 0.008 | 0.063 (≈ 0.133 µM) | 0.016 (≈ 0.0339 µM) |  |  |  |  |  | 
C[C@@H](n1ccc2cc(F)ccc2c1=O)[C@](O)(Cn1cncn1)c1cc(F)ccc1F | < 0.008 | 0.125 (≈ 0.302 µM) | 0.25 (≈ 0.603 µM) | < 0.008 | < 0.008 | < 0.008 | < 0.008 |  |  |  |  |  | 
C[C@@H](n1ncc2cn(-c3ccccc3)nc2c1=O)[C@](O)(Cn1cncn1)c1ccc(F)cc1F | 1 (≈ 2.16 µM) | > 64 | > 64 | > 64 | 0.5 (≈ 1.08 µM) | 1 (≈ 2.16 µM) | 0.5 (≈ 1.08 µM) |  |  |  |  |  | 
C[C@@H](n1ncc2cn(-c3ccc(Cl)c(Cl)c3)nc2c1=O)[C@](O)(Cn1cncn1)c1ccc(F)cc1F | 0.25 (≈ 0.47 µM) | > 64 | > 64 | > 64 | 0.125 (≈ 0.235 µM) | 0.5 (≈ 0.939 µM) | 0.25 (≈ 0.47 µM) |  |  |  |  |  | 
C[C@@H](n1ncc2cn(-c3ccc(F)c(F)c3)nc2c1=O)[C@](O)(Cn1cncn1)c1ccc(F)cc1F | 1 (≈ 2 µM) | > 64 | > 64 | > 64 | 0.5 (≈ 1 µM) | 1 (≈ 2 µM) | 0.25 (≈ 0.501 µM) |  |  |  |  |  | 
C[C@@H](n1ccc2cc(C(F)(F)F)ccc2c1=O)[C@](O)(Cn1cncn1)c1ccc(F)cc1F | < 0.008 | 0.063 (≈ 0.136 µM) | 0.5 (≈ 1.08 µM) | < 0.008 | < 0.008 | < 0.008 | < 0.008 |  |  |  |  |  | 
C[C@@H](n1ncc2ccccc2c1=O)[C@](O)(Cn1cncn1)c1ccc(F)cc1F | 0.063 (≈ 0.159 µM) | 1 (≈ 2.52 µM) | 4 (≈ 10.1 µM) | 0.063 (≈ 0.159 µM) | 0.008 (≈ 0.0201 µM) | 0.031 (≈ 0.078 µM) | 0.063 (≈ 0.159 µM) |  |  |  |  |  | 
C[C@@H](c1ncncc1F)[C@](O)(Cn1cncn1)c1ccc(F)cc1F [VORICONAZOLE] | 0.016 (≈ 0.0458 µM) | 0.063 (≈ 0.18 µM) | 0.25 (≈ 0.716 µM) | 0.063 (≈ 0.18 µM) | < 0.008 | < 0.008 | < 0.008 | 2 (≈ 5.73 µM) | 2 (≈ 5.73 µM) | 2 (≈ 5.73 µM) | 4 (≈ 11.5 µM) | 2 (≈ 5.73 µM) | 2 (≈ 5.73 µM)
C[C@@H](n1ncc2cn(-c3ccc(OC(F)(F)F)cc3)nc2c1=O)[C@](O)(Cn1cncn1)c1ccc(F)cc1F | 0.5 (≈ 0.913 µM) | > 64 | > 64 | > 64 | 0.5 (≈ 0.913 µM) | 1 (≈ 1.83 µM) | 0.5 (≈ 0.913 µM) |  |  |  |  |  | 
C[C@@H](n1ccc2cc(OC(F)(F)F)ccc2c1=O)[C@](O)(Cn1cncn1)c1ccc(F)cc1F | < 0.008 | 0.063 (≈ 0.131 µM) | 1 (≈ 2.08 µM) | < 0.008 | < 0.008 | < 0.008 | < 0.008 |  |  |  |  |  | 
C[C@@H](n1ncc2cn(-c3ccc(Cl)cc3)nc2c1=O)[C@](O)(Cn1cncn1)c1ccc(F)cc1F | 1 (≈ 2.01 µM) | > 64 | > 64 | 4 (≈ 8.03 µM) | 0.5 (≈ 1 µM) | 1 (≈ 2.01 µM) | 1 (≈ 2.01 µM) |  |  |  |  |  | 
Cc1ccc2c(=O)n([C@H](C)[C@](O)(Cn3cncn3)c3ccc(F)cc3F)ccc2c1 | < 0.008 | 0.125 (≈ 0.305 µM) | 0.5 (≈ 1.22 µM) | < 0.008 | < 0.008 | < 0.008 | < 0.008 |  |  |  |  |  | 
C[C@@H](n1cnc2cc(C(F)(F)F)ccc2c1=O)[C@](O)(Cn1cnnn1)c1ccc(F)cc1F | 0.125 (≈ 0.268 µM) | > 4 | 16 (≈ 34.3 µM) | 4 (≈ 8.58 µM) | < 0.008 | < 0.008 | < 0.008 |  |  |  |  |  | 
COc1ccc2c(=O)n([C@H](C)[C@](O)(Cn3cncn3)c3ccc(F)cc3F)ccc2c1 | < 0.008 | 0.125 (≈ 0.293 µM) | 1 (≈ 2.35 µM) | < 0.008 | < 0.008 | < 0.008 | < 0.008 |  |  |  |  |  | 
